# Earlier results in patent US20130137759A1, “COMPOSITIONS AND METHODS FOR TREATING PARASITIC DISEASE” (Worcester Polytechnic Institute, priority 2010, published 2013).
# Columns and labels:
# [1] = rats, intragastric in 1:9 dimethyl-acetamide-oil, 10 mg kg^−1 (2,320 μg per rat)
compound,measurement,setting,value
COc1cc2oc(-c3ccc(O)c(O)c3)c(OC)c(=O)c2c(O)c1OC [chrysosplenol-D],effect on AN activity against P. falciparum,P. falciparum; combined with pure AN,significant enhancement of AN activity
same,direct effect on P. falciparum,P. falciparum; flavonoid alone,no direct effect
C[C@@H]1CC[C@H]2[C@@H](C)C(=O)O[C@@H]3O[C@@]4(C)CC[C@@H]1[C@]32OO4 [artemisinin],half-life,healthy male volunteers,1 to 3 h
same,tmax,"humans, pure AN (Rath et al. 2004)",2.3 h
C[C@H]1[C@@H](O)O[C@@H]2O[C@@]3(C)CC[C@H]4[C@H](C)CC[C@@H]1[C@@]24OO3 [dihydroartemisinin],Plasma/serum concentration Artemisinin Cmax,[1],800 ng/mL
